In patent publication US20090221567A1, “MUSCARINIC RECEPTOR AGONISTS, COMPOSITIONS, METHODS OF TREATMENT THEREOF, AND PROCESSES FOR PREPARATION THEREOF 177” (ASTRAZENECA AB, priority 2008, published 2009):

Each molecule was assayed against T1, hM5 (human Muscarinic receptor subtype 5) (Homo sapiens, UniProt P08912) (assay: Human M5 calcium mobilization FLIPR assay). Conditions: receptor expressed in CHO cells, intracellular Ca2+ release.
T1 construct: expressed in transfected cells; host or cells: CHO cells (Chinese hamster ovary cells, ATCC)
T1 sequence (P08912 1-532): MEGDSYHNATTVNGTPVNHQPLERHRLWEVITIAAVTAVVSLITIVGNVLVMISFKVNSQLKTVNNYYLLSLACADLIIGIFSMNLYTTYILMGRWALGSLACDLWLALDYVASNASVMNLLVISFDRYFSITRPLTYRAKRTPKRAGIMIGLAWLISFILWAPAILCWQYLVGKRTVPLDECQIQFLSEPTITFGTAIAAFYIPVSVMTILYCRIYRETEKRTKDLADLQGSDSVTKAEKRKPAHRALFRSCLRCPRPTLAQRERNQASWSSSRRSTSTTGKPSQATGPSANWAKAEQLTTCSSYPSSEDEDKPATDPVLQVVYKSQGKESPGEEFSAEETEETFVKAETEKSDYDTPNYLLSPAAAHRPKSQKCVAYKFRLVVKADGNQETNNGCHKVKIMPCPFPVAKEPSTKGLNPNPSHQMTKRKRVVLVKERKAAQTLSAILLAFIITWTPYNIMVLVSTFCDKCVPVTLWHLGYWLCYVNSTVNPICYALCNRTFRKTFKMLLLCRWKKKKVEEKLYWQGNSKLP
Assay type: cell-based
Protocol: (§1) The compound activity in the present invention (EC50 or IC50) is measured using a 384 plate-based imaging assay that monitors drug induced intracellular Ca^2+ release in whole cells. Activation of hM1 (human Muscarinic receptor subtype 1, gene bank access NM_000738), rM1 (rat Muscarinic receptor subtype 1, gene bank access NM_080773), hM3 (human Muscarinic receptor subtype 3, gene bank access NM_000740NM_000740) and hM5 (human Muscarinic receptor subtype 5, gene bank access NM_0121258), receptors expressed in CHO cells (Chinese hamster ovary cells, ATCC) is quantified in a Molecular Devices FLIPR IITM instrument as an increase in fluorescent signal. Inhibition of hM3 and hM5 by compounds is determined by the decrease in fluorescent signal in response to 2 nM acetylcholine activation.
(§2) Prior to experiment, the cell culture medium is removed from the plates by inversion. […] Plates are incubated at 37° C. for 60 minutes prior to start the experiment. The incubation is terminated by washing the cells four times in assay buffer, leaving a residual 25 μl buffer per well. Cell plates are then transferred to the FLIPR, ready for compound additions.
(§3) The day of experiment, acetylcholine and compounds are diluted in assay buffer in three-fold concentration range (10 points serial dilution) for addition by FLIPR instrument. For all calcium assays, a baseline reading is taken for 10 seconds followed by the addition of 12.5 μl of compounds, resulting in a total well volume of 37.5 μl. Data is collected every second for 60 pictures and then every 6 seconds for 20 pictures prior to the addition of agonist. For hM3 and hM5, before agonist addition, a second baseline reading is taken for 10 seconds followed by the addition of 12.5 μl of agonist or buffer, producing a final volume of 50 μl. After agonist stimulation, the FLIPR continues to collect data every second for 60 pictures and then every 6 seconds for 20 pictures. The fluorescence emission is read using filter 1 (emission 510-570 nm) by the FLIPR on board CCD camera.
(§4) Calcium mobilization output data are calculated as the maximal relative fluorescence unit (RFU) minus the minimal value for both compound and agonist reading frame (except for hM1 and rM1 using only the maximal RFU). Data are analyzed using sigmoidal fits of a non-linear curve-fitting program (XLfit version 4.2.2 Excel add-in version 4.2.2 build 18 math 1Q version 2.1.2 build 18). All pEC50 and pIC50 values are reported as arithmetic means±standard error of mean of ‘n’ independent experiments.

SMILES | EC50
COc1ccsc1C(=O)N1CCC(N2CCC(N3C(=O)OC[C@H]4CCCC[C@@H]43)CC2)CC1 (racemic) [Example 17, (±)(trans)-10-[1-[1-(3-methoxythiophene-2-carbonyl)-4-piperidyl]-4-piperidyl]-8-oxa-10-azabicyclo[4.4.0]decan-9-one] | > 40000 nM

The molecules below were run against T2, hM3 (human Muscarinic receptor subtype 3) (Homo sapiens, UniProt P20309) (assay: Human M3 calcium mobilization FLIPR assay). Conditions: receptor expressed in CHO cells, intracellular Ca2+ release.
T2 construct: expressed in transfected cells; host or cells: CHO cells (Chinese hamster ovary cells, ATCC)
T2 sequence (P20309 whole entry): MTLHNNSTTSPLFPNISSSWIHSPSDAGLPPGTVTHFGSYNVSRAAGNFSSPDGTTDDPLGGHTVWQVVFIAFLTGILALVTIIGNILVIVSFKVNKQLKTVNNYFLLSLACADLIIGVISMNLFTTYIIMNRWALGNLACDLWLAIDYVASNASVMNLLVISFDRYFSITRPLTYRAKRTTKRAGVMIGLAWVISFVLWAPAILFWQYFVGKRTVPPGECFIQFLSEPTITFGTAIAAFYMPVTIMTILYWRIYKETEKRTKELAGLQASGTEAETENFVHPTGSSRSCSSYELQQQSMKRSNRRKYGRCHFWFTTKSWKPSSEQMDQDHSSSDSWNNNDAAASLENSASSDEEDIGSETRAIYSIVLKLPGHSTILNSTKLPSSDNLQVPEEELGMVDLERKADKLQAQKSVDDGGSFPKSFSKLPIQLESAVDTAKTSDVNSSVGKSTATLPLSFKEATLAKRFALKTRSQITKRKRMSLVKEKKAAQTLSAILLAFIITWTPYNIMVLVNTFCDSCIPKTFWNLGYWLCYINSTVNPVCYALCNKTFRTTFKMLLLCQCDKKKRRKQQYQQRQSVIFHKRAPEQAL
Assay type: cell-based
Protocol: as §1, §2, §3, §4

SMILES | EC50
COc1ccsc1C(=O)N1CCC(N2CCC(N3C(=O)OC[C@H]4CCCC[C@@H]43)CC2)CC1 (racemic) [Example 17, (±)(trans)-10-[1-[1-(3-methoxythiophene-2-carbonyl)-4-piperidyl]-4-piperidyl]-8-oxa-10-azabicyclo[4.4.0]decan-9-one] | > 40000 nM

The molecules below were run against T3, hM1 (human Muscarinic receptor subtype 1) (Homo sapiens, UniProt P11229) (assay: Human M1 calcium mobilization FLIPR assay). Conditions: read-out: hM1 EC50 values.
T3 construct: expressed in transfected cells; host or cells: CHO cells (Chinese hamster ovary cells, ATCC)
T3 sequence (P11229 1-460): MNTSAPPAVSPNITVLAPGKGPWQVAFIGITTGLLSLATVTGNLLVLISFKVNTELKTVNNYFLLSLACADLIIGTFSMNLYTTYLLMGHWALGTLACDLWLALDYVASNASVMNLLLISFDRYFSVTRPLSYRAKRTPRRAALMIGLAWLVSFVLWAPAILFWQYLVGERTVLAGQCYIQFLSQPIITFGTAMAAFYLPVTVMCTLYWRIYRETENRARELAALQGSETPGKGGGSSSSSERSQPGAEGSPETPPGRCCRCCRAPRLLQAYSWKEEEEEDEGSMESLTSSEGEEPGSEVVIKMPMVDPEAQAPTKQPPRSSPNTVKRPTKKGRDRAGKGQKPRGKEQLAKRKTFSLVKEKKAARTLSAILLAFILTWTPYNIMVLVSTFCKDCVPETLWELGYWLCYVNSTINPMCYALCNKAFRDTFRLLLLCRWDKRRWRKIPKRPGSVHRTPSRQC
Assay type: cell-based
Protocol: as §1, §2, §3, §4

SMILES | EC50
Cc1ccccc1C(=O)N1CCC(N2CCC(N3C(=O)OC[C@H]4CCCC[C@@H]43)CC2)CC1 [(4aS,8aS)-1-[1-[1-(2-methylbenzoyl)-4-piperidyl]-4-piperidyl]-4a,5,6,7,8,8a-hexahydro-4H-benzo[d][1,3]oxazin-2-one] | > 2890 nM
CC(C)OC(=O)N1CCC(C)(N2CCC(N3C(=O)CN[C@H]4CCCC[C@@H]43)CC2)CC1 [isopropyl 4-[4-[(4aS,8aS)-2-oxo-3,4,4a,5,6,7,8,8a-octahydroquinoxalin-1-yl]-1-piperidyl]-4-methyl-piperidine-1-carboxylate] | > 2890 nM
CC(C)OC(=O)N1CCC(C)(N2CCC(N3C(=O)CO[C@H]4CCCC[C@@H]43)CC2)CC1 [isopropyl 4-[4-[(4aS, 8aS)-3-oxo-4a,5,6,7,8,8a-hexahydrobenzo[b][1,4]oxazin-4-yl]-1-piperidyl]-4-methyl-piperidine-1-carboxylate] | > 2890 nM
CC(C)OC(=O)N1CC[C@H](N2CCC(N3C(=O)CO[C@H]4CCCC[C@@H]43)CC2)C1 [isopropyl (3S)-3-[4-[(4aS,8aS)-3-oxo-4a,5,6,7,8,8a-hexahydrobenzo[b][1,4]oxazin-4-yl]-1-piperidyl]pyrrolidine-1-carboxylate] | > 2890 nM
COC(=O)N1CCC(N2CCC(N3C(=O)OC[C@H]4CCCC[C@@H]43)CC2)CC1 [methyl 4-[4-[(4aS,8aS)-2-oxo-4a,5,6,7,8,8a-hexahydro-4H-benzo[d][1,3]oxazin-1-yl]-1-piperidyl]piperidine-1-carboxylate] | > 2890 nM
CC(C)(C)OC(=O)N1CCC(N2CCC(N3C(=O)OC[C@@H]4CCCC[C@H]43)CC2)CC1 [tert-butyl 4-[4-[(4aR,8aR)-2-oxo-4a,5,6,7,8,8a-hexahydro-4H-benzo[d][1,3]oxazin-1-yl]-1-piperidyl]piperidine-1-carboxylate] | > 2890 nM
CC(C)(C)OC(=O)N1CCC(N2CCC(N3C(=O)CO[C@H]4CCCC[C@@H]43)CC2)CC1 [tert-butyl 4-[4-[(4aS,8aS)-3-oxo-4a,5,6,7,8,8a-hexahydrobenzo[b][1,4]oxazin-4-yl]-1-piperidyl]piperidine-1-carboxylate] | > 2890 nM

Same assay, conditions: receptor expressed in CHO cells, intracellular Ca2+ release; read-out: hM1 EC50

SMILES | EC50
COc1ccsc1C(=O)N1CCC(N2CCC(N3C(=O)OC[C@H]4CCCC[C@@H]43)CC2)CC1 (racemic) [Example 17, (±)(trans)-10-[1-[1-(3-methoxythiophene-2-carbonyl)-4-piperidyl]-4-piperidyl]-8-oxa-10-azabicyclo[4.4.0]decan-9-one] | 270 nM
CCOC(=O)N1CCC(N2CCC(N3C(=O)NC[C@H]4CCCC[C@@H]43)CC2)C1 (stereo partly drawn) [Example 5, ethyl 3-[4-[(4aR,8aS)-2-oxo-3,4,4a,5,6,7,8,8a-octahydroquinazolin-1-yl]-1-piperidyl]pyrrolidine-1-carboxylate] | 31 nM
CC(C)OC(=O)N1CCC(N2CCC(N3C(=O)OC[C@H]4CCCC[C@@H]43)CC2)CC1 [Example 16, Propan-2-yl 4-[4-[(1S,6S)-9-oxo-8-oxa-10-azabicyclo[4.4.0]dec-10-yl]-1-piperidyl]piperidine-1-carboxylate] | 220 nM
